Measurements from ChEMBL document CHEMBL3714750, “Aryl sulfonamides” (2008).
Activity calls are given as the source filed them. No cut-off for these calls is given here.

tested on: Mus musculus; assay: Inhibition of inflammatory bowel disease-associated growth retardation in MDR1a-knockout mouse at 50 mg/kg, sc dosed twice daily for 14 consecutive weeks starting at age 10 weeks; format: functional, organism-based

SMILES | Activity
CC(C)(C)c1ccc(S(=O)(=O)Nc2ccc(Cl)cc2C(=O)c2ccncc2)cc1 | Active

biological target: T1, C-C chemokine receptor type 9 (Homo sapiens, UniProt P51686); assay: Antagonist activity against CCR9 in human MOLT4 cells assessed as inhibition of human recombinant TECK-induced calcium response pre-treated before TECK stimulation by Flou-4-AM dye based FLIPR assay; format: functional, cell-based, MOLT-4
T1 sequence (P51686 whole entry): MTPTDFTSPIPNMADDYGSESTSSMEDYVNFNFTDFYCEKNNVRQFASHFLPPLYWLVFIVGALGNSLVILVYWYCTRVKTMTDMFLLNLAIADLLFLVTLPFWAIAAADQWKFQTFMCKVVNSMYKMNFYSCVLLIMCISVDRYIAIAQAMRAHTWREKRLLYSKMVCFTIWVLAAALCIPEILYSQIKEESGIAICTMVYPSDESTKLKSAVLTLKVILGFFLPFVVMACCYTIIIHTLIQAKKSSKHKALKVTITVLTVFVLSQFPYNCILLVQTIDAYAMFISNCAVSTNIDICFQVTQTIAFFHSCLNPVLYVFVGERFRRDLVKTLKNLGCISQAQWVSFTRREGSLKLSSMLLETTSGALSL

IC50 [nM] | SMILES
< 1000 | CC(C)(C)c1ccc(S(=O)(=O)Nc2ccc(Cl)cc2C(=O)c2ccncc2)cc1
< 1000 | Cc1ccc(C(=O)c2cc(Cl)ccc2NS(=O)(=O)c2ccc(OC(C)C)cc2)cn1
< 1000 | CC(C)(C)c1ccc(S(=O)(=O)Nc2ccc(Cl)cc2C(=O)c2cc[n+]([O-])c(Cl)c2)cc1
< 1000 | COc1ccc(S(=O)(=O)Nc2ccc(Cl)cc2C(=O)Nc2ccccc2)cc1
< 1000 | CC(C)(c1ccc(S(=O)(=O)Nc2ccc(Cl)cc2C(=O)c2cccnc2)cc1)c1ncco1
< 1000 | COC(=O)CCc1ccc(S(=O)(=O)Nc2ccc(Cl)cc2C(=O)c2cccnc2)cc1
< 1000 | CC1(c2ccc(S(=O)(=O)Nc3ccc(Cl)cc3C(=O)c3cc[n+]([O-])cc3)cc2)CCOCC1
< 1000 | O=C(c1ccncc1)c1cc(Cl)ccc1NS(=O)(=O)c1ccc(N2CCSCC2)cc1
< 1000 | CSc1ccc(C(=O)c2cc(Cl)ccc2NS(=O)(=O)c2ccc(C(C)(C)C)cc2)cn1
< 1000 | O=C(c1cccnc1)c1cc(Cl)ccc1NS(=O)(=O)c1ccc(N2CCOCC2)cc1
< 1000 | CC(C)(C)c1ccc(S(=O)(=O)Nc2ccc(Cl)cc2C(=O)c2ccc[n+]([O-])c2)cc1
< 1000 | CC1(c2ccc(S(=O)(=O)Nc3ccc(Cl)cc3C(=O)c3ccccn3)cc2)CCOCC1
> 1000 | CS(=O)(=O)c1ccc(S(=O)(=O)Nc2ccc(Cl)cc2C(=O)c2ccncc2)cc1
< 1000 | Cc1cc(C(=O)c2cc(Cl)ccc2NS(=O)(=O)c2ccc(C3(C)CCOCC3)cc2)cc[n+]1[O-]
< 1000 | COC(=O)CCc1ccc(S(=O)(=O)Nc2ccc(Cl)cc2C(=O)c2ccc(C)[n+]([O-])c2)cc1
> 1000 | COc1ccc(S(=O)(=O)Nc2ccc(Cl)cc2C(=O)N2CCCCC2)cc1
< 1000 | CC1(c2ccc(S(=O)(=O)Nc3ccc(Cl)cc3C(=O)c3cc[n+]([O-])cc3)cc2)OCCO1
< 1000 | Cc1cc(C(=O)c2cc(Cl)ccc2NS(=O)(=O)c2ccc(OC(C)C)cc2)cc[n+]1[O-]
< 1000 | C[C@@H]1CN(c2ccc(S(=O)(=O)Nc3ccc(Cl)cc3C(=O)c3cc[n+]([O-])cc3)cc2)C[C@H](C)O1
< 1000 | O=C(c1ccncc1)c1cc(Cl)ccc1NS(=O)(=O)c1ccc(-c2cnco2)cc1
< 1000 | C[C@@H]1CN(c2ccc(S(=O)(=O)Nc3ccc(Cl)cc3C(=O)c3ccc[n+]([O-])c3)cc2)C[C@H](C)O1
< 1000 | Cc1cc(C(=O)c2cc(Cl)ccc2NS(=O)(=O)c2ccc(C3(C)CCOCC3)cc2)ccn1
> 1000 | CC(=O)c1ccc(S(=O)(=O)Nc2ccc(Cl)cc2C(=O)c2ccc(C)nc2)cc1

IC50 [nM] | SMILES
< 1000 | Cc1ncccc1C(=O)c1cc(Cl)ccc1NS(=O)(=O)c1ccc(S(C)(=O)=O)cc1
< 1000 | O=C(c1cccnc1)c1cc(F)c(F)cc1NS(=O)(=O)c1ccc(N2CCOCC2)cc1
> 1000 | COc1ccc(S(=O)(=O)Nc2ccc(Cl)cc2C(=O)N2CCCC(Cc3ccccc3)C2)cc1 (centres undefined)
< 1000 | Cn1cc(C(=O)c2cc(Cl)ccc2NS(=O)(=O)c2ccc(C(C)(C)C)cc2)nn1
< 1000 | Cc1cccc(C(=O)c2cc(Cl)ccc2NS(=O)(=O)c2ccc(C3(C)CCOCC3)cc2)n1
> 1000 | O=C(c1ccncc1)c1cc(Cl)ccc1NS(=O)(=O)c1ccc(-c2ccc[nH]2)cc1
< 1000 | Cc1ccc(C(=O)c2cc(Cl)ccc2NS(=O)(=O)c2ccc(N3C[C@@H](C)O[C@@H](C)C3)cc2)c[n+]1[O-]
< 1000 | Cc1cccc(C(=O)c2cc(Cl)ccc2NS(=O)(=O)c2ccc(C(C)(C)C)cc2)n1
< 1000 | O=C(c1ccncc1)c1cc(Cl)ccc1NS(=O)(=O)c1ccc(N2CCOCC2)cc1
< 1000 | CC(C)(C)c1ccc(S(=O)(=O)Nc2ccc(F)c(F)c2C(=O)c2ccncc2)cc1
< 1000 | Cc1ccc(C(=O)c2cc(Cl)ccc2NS(=O)(=O)c2ccc(N3CCOCC3)c(F)c2)cn1
< 1000 | CC(C)Oc1ccc(S(=O)(=O)Nc2ccc(Br)cc2C(=O)c2ccncc2)cc1
< 1000 | Cc1ccc(C(=O)c2cc(Cl)ccc2NS(=O)(=O)c2ccc(C(C)(C)c3cocn3)cc2)cn1
< 1000 | Cc1cc(C(=O)c2cc(Cl)ccc2NS(=O)(=O)c2ccc(C(C)(C)C)cc2)cc[n+]1[O-]
< 1000 | CC(C)c1ccc(S(=O)(=O)Nc2ccc(Br)cc2C(=O)c2ccncc2)cc1
> 1000 | Cn1nnnc1-c1ccc(S(=O)(=O)Nc2ccc(Cl)cc2C(=O)c2ccncc2)cc1
< 1000 | Cc1ccc(C(=O)c2cc(Cl)ccc2NS(=O)(=O)c2ccc(OC(F)(F)F)cc2)cn1
< 1000 | O=C(c1ccncc1)c1cc(Cl)ccc1NS(=O)(=O)c1ccc(N2CCCC2)cc1
> 1000 | COc1ccc(S(=O)(=O)Nc2ccc(Br)cc2C(=O)c2ccncc2)cc1
< 1000 | C[C@@H]1CN(c2ccc(S(=O)(=O)Nc3ccc(Cl)cc3C(=O)c3cc[n+]([O-])cc3)cc2F)C[C@H](C)O1
< 1000 | CC(C)(c1ccc(S(=O)(=O)Nc2ccc(Cl)cc2C(=O)c2cc[n+]([O-])cc2)cc1)c1cnco1
< 1000 | Cc1ccncc1C(=O)c1cc(Cl)ccc1NS(=O)(=O)c1ccc(-c2cnco2)cc1
< 1000 | CC(C)(C)c1ccc(S(=O)(=O)Nc2ccc(Cl)cc2C(=O)c2nccs2)cc1

IC50 [nM] | SMILES
> 1000 | CC(C)(C)c1ccc(S(=O)(=O)Nc2ccc(S(=O)(=O)N3CCCC3)cc2C(=O)c2ccncc2)cc1
> 1000 | Cc1nnc(-c2ccc(S(=O)(=O)Nc3ccc(Cl)cc3C(=O)c3cccnc3)cc2)o1
< 1000 | COc1ccc(S(=O)(=O)Nc2ccc(Cl)cc2C(=O)c2ccncc2)cc1
< 1000 | CC1(c2ccc(S(=O)(=O)Nc3ccc(Cl)cc3C(=O)c3ccc[n+]([O-])c3)cc2)CCOCC1
< 1000 | CC1(c2ccc(S(=O)(=O)Nc3ccc(Cl)cc3C(=O)c3ccncc3)cc2)OCCO1
< 1000 | CC(C)(c1ccc(S(=O)(=O)Nc2ccc(Cl)cc2C(=O)c2cc[n+]([O-])cc2)cc1)c1ncco1
> 1000 | O=C(c1ccncc1)c1cc(Cl)ccc1NS(=O)(=O)c1ccc(-c2cccnc2F)cc1
< 1000 | Cc1ccc(C(=O)c2cc(Cl)ccc2NS(=O)(=O)c2ccc(N3CCOCC3)cc2)c[n+]1[O-]
< 1000 | C[C@@H]1CN(c2ccc(S(=O)(=O)Nc3ccc(Cl)cc3C(=O)c3ccncc3)cc2)C[C@H](C)O1
> 1000 | Cc1nnc(-c2ccc(S(=O)(=O)Nc3ccc(Cl)cc3C(=O)c3ccccn3)cc2)o1
< 1000 | CC(C)(C)c1ccc(S(=O)(=O)Nc2ccc(Cl)cc2C(=O)c2cc[nH]n2)cc1
< 1000 | Cc1ccc(C(=O)c2cc(Cl)ccc2NS(=O)(=O)c2ccc(N3C[C@@H](C)O[C@@H](C)C3)c(F)c2)cn1
< 1000 | O=C(c1ccncc1)c1cc(Cl)ccc1NS(=O)(=O)c1ccc(-c2ccoc2)cc1
< 1000 | CC(C)(C)c1ccc(S(=O)(=O)Nc2ccc(F)c(F)c2C(=O)c2cccnc2)cc1
< 1000 | O=C(c1ccncc1)c1cc(Cl)ccc1NS(=O)(=O)c1ccc(OC(F)(F)F)cc1
> 1000 | O=C(c1ccncc1)c1cc(Cl)ccc1NS(=O)(=O)c1ccc(-c2nccs2)cc1
> 1000 | CC(=O)c1ccc(S(=O)(=O)Nc2ccc(Cl)cc2C(=O)c2ccnc(C)c2)cc1
< 1000 | CC(C)(c1ccc(S(=O)(=O)Nc2ccc(Cl)cc2C(=O)c2ccc[n+]([O-])c2)cc1)c1ncco1
< 1000 | O=C(c1ccncc1)c1cc(Cl)ccc1NS(=O)(=O)c1ccc(CCc2ncco2)cc1
< 1000 | CC(C)(C)c1ccc(S(=O)(=O)Nc2ccc(Cl)cc2C(=O)c2ccc(Cl)nc2)cc1
> 1000 | CC(=O)N1CCN(c2ccc(S(=O)(=O)Nc3ccc(Cl)cc3C(=O)c3ccncc3)cc2)CC1
< 1000 | CC1(c2ccc(S(=O)(=O)Nc3ccc(Cl)cc3C(=O)c3ccncc3)cc2)CCOCC1
